Results taken from US8637511B2, “Aminopyrimidines useful as kinase inhibitors” (Vertex Pharmaceuticals Incorporated, priority 2005, dated 2014).

target: T1, human Itk kinase (Homo sapiens, UniProt Q08881); assay: Itk inhibition assay: radioactivity-based assay; assay type: biochemical; details: Ki(app)
T1 sequence (Q08881 1-620): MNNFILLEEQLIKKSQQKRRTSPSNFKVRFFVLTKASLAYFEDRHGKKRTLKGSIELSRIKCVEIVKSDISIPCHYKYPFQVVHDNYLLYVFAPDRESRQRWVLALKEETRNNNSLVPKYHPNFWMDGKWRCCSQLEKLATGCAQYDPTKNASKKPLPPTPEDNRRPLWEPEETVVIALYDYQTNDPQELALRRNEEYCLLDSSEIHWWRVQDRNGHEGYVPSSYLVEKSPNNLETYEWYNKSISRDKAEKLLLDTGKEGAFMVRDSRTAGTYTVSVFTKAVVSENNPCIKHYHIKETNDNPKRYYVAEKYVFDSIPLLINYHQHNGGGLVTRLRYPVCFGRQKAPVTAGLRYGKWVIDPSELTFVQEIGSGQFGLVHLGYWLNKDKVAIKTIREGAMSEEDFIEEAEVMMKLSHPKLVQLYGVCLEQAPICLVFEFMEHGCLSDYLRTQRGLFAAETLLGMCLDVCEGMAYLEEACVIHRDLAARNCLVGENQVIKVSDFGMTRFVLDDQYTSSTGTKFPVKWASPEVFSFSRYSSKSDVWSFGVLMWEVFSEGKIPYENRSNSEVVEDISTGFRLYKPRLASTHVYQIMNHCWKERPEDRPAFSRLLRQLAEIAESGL
In short: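 50 nM Itk with 3 μM SAM68 Δ332-443 peptide and 7.5 μM [γ-33P]ATP in MOPS pH 7.0, MgCl2, 25° C; compound (top 50 μM final, 2-fold dilutions, 2% DMSO) preincubated 10 min, reaction 10 min. Phosphocellulose filter capture and scintillation counting; Ki(app) by non-linear regression of initial rates.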

SMILES | Ki
CCOC1CN(c2cc(Nc3cc(C)[nH]n3)nc(Sc3ccc(NC(=O)c4ccccc4Cl)cc3)n2)C1 [Compound 37] | ≤ 100 nM
Cc1cc(Nc2cc(N3CC(OC(C)C)C3)nc(Sc3ccc(NC(=O)c4ccccc4Cl)cc3)n2)n[nH]1 [Compound 38] | ≤ 100 nM
Cc1cc(Nc2cc(N3CC(C)(O)C3)nc(Sc3ccc(NC(=O)c4ccccc4Cl)cc3)n2)[nH]n1 [Compound 50] | ≤ 100 nM
COC1(C)CN(c2cc(Nc3cc(C)n[nH]3)nc(Sc3ccc(NC(=O)c4ccccc4Cl)cc3)n2)C1 [Compound 51] | ≤ 100 nM
Cc1cc(Nc2cc(N3CCC3)nc(Sc3ccc(NC(=O)Cc4ccccc4Cl)cc3)n2)[nH]n1 [Compound 57] | 100 to 1000 nM
Cc1cc(Nc2cc(N3CCC3)nc(Sc3ccc(NC(=O)c4cnccc4C(F)(F)F)cc3)n2)[nH]n1 [Compound 59] | 100 to 1000 nM
CCC(=O)Nc1ccc(Sc2nc(Nc3cc(C)n[nH]3)cc(N3CC(OC(C)(C)C)C3)n2)cc1 [Compound 67] | 100 to 1000 nM
CCC(=O)Nc1ccc(Sc2nc(Nc3cc(C)n[nH]3)cc(N3CC(N4CCOCC4)C3)n2)cc1 [Compound 68] | 100 to 1000 nM
CC(C)(C)c1cc(Nc2cc(N3CCC3)nc(Sc3ccc(NC(=O)c4ccccc4Cl)cc3)n2)n[nH]1 [Compound 69] | 1000 to 2000 nM
COCc1cc(Nc2cc(N3CCC3)nc(Sc3ccc(NC(=O)c4ccccc4Cl)cc3)n2)n[nH]1 [Compound 82] | 100 to 1000 nM
